Assay results taken from ChEMBL document CHEMBL1150977, “A quantitative analysis of kinase inhibitor selectivity” (Nat Biotechnol, 2008).

Assays:
[1] = molecular target: T1, Serine/threonine-protein kinase Nek1 (Homo sapiens, UniProt Q96PY6)
T1 sequence (Q96PY6 whole entry): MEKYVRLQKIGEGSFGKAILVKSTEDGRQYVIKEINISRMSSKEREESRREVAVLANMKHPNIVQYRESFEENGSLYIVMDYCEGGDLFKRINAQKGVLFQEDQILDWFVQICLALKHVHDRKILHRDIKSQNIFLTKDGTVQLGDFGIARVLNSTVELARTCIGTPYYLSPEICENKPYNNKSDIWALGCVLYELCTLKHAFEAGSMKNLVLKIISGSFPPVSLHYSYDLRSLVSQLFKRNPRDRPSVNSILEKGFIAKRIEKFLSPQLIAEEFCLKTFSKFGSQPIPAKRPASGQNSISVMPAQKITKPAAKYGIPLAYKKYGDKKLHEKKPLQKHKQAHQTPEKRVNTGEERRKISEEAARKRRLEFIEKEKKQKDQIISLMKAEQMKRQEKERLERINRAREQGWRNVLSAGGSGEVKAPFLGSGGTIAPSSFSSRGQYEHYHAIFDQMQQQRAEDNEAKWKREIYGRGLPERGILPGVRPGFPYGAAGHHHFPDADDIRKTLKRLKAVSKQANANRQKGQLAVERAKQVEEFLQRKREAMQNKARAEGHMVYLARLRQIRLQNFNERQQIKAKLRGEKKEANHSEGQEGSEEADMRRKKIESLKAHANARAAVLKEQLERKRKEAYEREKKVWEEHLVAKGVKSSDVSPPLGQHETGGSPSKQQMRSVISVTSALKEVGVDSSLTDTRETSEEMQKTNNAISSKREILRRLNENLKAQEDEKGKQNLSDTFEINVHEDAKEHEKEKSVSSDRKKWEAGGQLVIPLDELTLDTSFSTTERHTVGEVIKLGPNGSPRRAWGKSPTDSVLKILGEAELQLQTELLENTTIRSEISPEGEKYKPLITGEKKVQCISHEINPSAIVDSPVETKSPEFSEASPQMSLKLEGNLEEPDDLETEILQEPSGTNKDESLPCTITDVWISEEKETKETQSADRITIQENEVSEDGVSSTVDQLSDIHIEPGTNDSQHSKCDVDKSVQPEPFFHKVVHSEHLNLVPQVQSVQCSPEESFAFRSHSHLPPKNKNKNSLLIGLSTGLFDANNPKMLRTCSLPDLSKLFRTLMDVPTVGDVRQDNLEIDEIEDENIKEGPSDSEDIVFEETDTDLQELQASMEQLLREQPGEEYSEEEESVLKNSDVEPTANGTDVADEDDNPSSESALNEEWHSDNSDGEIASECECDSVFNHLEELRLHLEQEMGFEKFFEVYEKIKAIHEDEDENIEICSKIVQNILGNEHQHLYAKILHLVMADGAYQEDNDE

[2] = molecular target: Death-associated protein kinase 2 (Homo sapiens, UniProt Q9UIK4)
[3] = molecular target: Serine/threonine-protein kinase 26 (Homo sapiens, UniProt Q9P289)
Aurora kinase C = molecular target: T2, Aurora kinase C (Homo sapiens, UniProt Q9UQB9)
T2 sequence (Q9UQB9 whole entry): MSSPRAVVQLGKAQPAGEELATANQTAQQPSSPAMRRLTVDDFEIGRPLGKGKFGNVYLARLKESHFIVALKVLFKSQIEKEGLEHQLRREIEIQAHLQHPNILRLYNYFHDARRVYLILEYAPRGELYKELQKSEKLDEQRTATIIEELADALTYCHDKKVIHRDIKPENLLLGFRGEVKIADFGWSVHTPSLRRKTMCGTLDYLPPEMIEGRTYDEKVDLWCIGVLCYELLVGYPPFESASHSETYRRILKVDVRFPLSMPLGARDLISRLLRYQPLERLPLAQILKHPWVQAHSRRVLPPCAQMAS

[4] = molecular target: Serine/threonine-protein kinase MARK1 (Homo sapiens, UniProt Q9P0L2)
[5] = molecular target: Tyrosine-protein kinase FRK (Homo sapiens, UniProt P42685)
[6] = molecular target: Vascular endothelial growth factor receptor 1 (Homo sapiens, UniProt P17948)
[7] = molecular target: T3, Receptor-interacting serine/threonine-protein kinase 1 (Homo sapiens, UniProt Q13546)
T3 sequence (Q13546 whole entry): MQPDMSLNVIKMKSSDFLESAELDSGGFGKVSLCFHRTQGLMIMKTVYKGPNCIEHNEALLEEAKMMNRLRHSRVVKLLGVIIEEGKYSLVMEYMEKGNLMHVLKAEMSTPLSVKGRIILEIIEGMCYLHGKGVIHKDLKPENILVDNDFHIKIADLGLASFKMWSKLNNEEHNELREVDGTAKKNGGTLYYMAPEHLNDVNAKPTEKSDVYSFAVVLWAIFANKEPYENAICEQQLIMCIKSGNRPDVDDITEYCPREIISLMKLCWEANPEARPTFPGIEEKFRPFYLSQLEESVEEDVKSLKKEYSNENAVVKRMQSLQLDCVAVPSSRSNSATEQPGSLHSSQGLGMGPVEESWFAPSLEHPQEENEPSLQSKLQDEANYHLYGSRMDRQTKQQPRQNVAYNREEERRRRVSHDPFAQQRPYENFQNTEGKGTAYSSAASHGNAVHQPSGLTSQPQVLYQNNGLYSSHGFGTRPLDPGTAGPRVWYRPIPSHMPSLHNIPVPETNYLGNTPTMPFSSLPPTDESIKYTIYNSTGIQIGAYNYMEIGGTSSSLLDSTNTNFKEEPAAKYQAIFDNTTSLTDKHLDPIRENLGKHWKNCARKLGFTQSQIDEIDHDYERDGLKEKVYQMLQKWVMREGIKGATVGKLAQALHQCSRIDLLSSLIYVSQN

[8] = molecular target: T4, Serine/threonine-protein kinase 17B (Homo sapiens, UniProt O94768)
T4 sequence (O94768 whole entry): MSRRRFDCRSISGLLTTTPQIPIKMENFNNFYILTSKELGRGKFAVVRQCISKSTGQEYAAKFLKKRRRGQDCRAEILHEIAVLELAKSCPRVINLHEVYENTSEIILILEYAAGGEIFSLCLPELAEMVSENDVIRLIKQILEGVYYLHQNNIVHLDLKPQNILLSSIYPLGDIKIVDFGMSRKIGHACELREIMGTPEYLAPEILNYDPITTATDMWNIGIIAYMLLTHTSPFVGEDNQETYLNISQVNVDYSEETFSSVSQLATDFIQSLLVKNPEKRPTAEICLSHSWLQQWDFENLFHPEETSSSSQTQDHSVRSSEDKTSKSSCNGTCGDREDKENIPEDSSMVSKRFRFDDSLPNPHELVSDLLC

[9] = molecular target: Ribosomal protein S6 kinase alpha-2 (Homo sapiens, UniProt Q15349)
[10] = molecular target: Mitogen-activated protein kinase 8 (Homo sapiens, UniProt P45983)
Sequence of Mitogen-activated protein kinase 8 (P45983 whole entry): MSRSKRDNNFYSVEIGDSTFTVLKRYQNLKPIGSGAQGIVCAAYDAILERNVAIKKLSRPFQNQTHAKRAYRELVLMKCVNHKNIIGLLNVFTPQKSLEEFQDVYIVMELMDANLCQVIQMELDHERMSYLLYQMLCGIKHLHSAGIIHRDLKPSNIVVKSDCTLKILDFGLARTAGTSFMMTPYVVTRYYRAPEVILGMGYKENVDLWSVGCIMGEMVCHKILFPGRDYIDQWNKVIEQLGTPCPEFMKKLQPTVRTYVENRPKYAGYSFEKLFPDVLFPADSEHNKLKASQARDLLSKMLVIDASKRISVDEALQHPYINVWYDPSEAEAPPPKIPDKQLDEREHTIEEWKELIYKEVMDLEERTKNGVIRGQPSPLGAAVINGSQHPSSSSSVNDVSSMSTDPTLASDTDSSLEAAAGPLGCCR

Sequence of Vascular endothelial growth factor receptor 1 (P17948 whole entry): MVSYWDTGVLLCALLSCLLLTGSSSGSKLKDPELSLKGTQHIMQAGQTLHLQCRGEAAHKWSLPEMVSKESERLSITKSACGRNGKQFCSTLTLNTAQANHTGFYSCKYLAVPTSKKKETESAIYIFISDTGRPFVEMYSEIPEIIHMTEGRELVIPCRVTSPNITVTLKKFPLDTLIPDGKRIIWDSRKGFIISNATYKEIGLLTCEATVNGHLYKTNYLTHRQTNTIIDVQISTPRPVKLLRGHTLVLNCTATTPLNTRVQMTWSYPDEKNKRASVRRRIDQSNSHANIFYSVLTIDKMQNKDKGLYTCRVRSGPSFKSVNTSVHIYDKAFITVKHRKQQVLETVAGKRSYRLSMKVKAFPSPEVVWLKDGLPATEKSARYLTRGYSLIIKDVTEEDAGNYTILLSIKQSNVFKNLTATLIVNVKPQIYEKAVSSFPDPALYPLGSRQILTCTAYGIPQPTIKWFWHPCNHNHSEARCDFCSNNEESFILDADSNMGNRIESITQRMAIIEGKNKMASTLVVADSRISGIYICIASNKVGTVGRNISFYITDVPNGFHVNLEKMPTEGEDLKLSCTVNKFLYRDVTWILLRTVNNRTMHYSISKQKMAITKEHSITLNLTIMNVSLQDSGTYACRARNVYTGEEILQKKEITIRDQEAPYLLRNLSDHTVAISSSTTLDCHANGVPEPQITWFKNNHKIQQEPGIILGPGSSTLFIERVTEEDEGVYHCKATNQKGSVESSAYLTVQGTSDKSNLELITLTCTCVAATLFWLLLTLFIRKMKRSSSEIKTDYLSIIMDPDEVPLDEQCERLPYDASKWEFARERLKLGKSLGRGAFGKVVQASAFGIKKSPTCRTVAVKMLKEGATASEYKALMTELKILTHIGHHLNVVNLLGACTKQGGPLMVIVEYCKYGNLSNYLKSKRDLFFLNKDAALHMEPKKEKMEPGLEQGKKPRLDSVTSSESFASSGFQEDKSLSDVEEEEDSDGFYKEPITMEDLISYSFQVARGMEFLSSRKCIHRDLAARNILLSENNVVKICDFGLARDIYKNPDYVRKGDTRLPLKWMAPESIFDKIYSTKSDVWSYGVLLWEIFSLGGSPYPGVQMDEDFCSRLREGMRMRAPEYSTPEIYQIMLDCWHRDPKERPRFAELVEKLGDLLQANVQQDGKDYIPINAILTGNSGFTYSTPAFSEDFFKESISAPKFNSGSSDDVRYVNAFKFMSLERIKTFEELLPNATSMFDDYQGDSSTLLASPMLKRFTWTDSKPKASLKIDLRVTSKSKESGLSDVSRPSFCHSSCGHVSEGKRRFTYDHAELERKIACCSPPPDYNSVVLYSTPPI
Sequence of Death-associated protein kinase 2 (Q9UIK4 whole entry): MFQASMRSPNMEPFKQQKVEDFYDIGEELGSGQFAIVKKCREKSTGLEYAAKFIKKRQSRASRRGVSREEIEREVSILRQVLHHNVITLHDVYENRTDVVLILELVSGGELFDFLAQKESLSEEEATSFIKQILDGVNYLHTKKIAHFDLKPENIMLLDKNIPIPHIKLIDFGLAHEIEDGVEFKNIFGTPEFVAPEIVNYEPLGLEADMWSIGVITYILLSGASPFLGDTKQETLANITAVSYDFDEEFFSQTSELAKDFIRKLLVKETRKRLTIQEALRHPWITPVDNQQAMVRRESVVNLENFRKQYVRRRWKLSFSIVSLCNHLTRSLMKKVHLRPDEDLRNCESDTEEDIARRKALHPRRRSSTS
Sequence of Serine/threonine-protein kinase 26 (Q9P289 whole entry): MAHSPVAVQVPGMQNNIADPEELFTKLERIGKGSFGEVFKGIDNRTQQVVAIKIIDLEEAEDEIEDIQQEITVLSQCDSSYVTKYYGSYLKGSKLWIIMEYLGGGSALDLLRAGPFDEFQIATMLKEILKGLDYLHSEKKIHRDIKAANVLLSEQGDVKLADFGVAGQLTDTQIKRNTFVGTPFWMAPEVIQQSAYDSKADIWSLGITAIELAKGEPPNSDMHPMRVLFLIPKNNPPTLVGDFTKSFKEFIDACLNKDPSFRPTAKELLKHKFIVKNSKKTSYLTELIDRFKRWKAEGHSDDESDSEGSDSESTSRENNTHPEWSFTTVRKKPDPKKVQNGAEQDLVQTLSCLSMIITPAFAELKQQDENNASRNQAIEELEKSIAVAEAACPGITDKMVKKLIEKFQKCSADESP
Sequence of Serine/threonine-protein kinase MARK1 (Q9P0L2 whole entry): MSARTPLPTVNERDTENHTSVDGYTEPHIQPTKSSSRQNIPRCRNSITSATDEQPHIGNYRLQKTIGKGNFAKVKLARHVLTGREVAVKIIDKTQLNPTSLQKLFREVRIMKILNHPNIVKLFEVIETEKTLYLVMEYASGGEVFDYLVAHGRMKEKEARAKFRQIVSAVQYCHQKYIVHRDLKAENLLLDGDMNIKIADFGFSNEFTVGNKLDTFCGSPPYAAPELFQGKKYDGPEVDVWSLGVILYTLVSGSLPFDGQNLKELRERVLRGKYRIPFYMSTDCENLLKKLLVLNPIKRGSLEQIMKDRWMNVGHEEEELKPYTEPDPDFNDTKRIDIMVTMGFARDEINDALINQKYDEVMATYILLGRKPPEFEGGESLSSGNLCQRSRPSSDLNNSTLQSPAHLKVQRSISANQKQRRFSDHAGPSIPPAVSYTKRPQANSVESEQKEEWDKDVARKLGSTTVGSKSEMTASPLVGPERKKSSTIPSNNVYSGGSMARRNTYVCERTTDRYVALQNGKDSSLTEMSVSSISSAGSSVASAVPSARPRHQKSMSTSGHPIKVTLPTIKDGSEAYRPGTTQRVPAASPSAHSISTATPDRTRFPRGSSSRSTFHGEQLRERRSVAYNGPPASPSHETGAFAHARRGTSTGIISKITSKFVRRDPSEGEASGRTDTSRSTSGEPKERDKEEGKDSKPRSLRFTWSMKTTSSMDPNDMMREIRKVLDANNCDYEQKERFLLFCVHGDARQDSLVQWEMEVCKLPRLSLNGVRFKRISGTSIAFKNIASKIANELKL
Sequence of Tyrosine-protein kinase FRK (P42685 whole entry): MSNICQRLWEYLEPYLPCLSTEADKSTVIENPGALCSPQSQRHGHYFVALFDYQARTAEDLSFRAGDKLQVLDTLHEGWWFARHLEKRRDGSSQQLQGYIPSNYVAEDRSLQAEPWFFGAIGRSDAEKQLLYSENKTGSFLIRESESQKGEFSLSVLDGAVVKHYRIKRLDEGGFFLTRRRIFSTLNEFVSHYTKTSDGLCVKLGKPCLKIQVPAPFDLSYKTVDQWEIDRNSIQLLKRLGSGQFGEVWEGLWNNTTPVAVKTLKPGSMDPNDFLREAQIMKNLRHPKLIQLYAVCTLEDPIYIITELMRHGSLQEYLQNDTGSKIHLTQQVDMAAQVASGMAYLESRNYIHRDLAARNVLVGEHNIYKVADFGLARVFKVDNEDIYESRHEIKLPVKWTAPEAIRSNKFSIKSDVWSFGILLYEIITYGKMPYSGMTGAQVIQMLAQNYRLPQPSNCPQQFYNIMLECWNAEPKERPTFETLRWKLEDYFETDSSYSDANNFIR
Sequence of Ribosomal protein S6 kinase alpha-2 (Q15349 whole entry): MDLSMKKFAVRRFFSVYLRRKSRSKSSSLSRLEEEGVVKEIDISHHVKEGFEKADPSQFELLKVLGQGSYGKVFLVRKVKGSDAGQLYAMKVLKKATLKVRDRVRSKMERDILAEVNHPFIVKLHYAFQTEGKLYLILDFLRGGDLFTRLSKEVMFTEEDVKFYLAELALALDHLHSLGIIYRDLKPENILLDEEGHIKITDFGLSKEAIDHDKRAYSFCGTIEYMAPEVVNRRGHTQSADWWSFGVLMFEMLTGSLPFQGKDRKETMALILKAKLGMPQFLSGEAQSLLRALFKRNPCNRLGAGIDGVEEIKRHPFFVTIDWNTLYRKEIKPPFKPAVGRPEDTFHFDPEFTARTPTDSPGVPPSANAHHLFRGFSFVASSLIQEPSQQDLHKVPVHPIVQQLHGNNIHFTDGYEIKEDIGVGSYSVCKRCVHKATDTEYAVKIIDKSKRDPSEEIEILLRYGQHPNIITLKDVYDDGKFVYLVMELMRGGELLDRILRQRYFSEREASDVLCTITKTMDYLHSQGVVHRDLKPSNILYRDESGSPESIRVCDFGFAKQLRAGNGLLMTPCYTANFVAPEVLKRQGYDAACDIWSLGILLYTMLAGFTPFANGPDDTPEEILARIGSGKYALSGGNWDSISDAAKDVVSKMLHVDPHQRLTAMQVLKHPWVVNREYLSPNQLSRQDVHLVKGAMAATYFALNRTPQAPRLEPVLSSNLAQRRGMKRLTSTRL

Row | Compound | Kd [1] | Kd [2] | Kd [3] | Kd (Aurora kinase C) | Kd [4] | Kd [5] | Kd [6] | Kd [7] | Kd [8] | Kd [9] | Kd [10]
1 | COCC(=O)NC/C=C/c1ccc2ncnc(Nc3ccc(Oc4ccc(C)nc4)c(C)c3)c2c1 [CP-724714] | > 10 µM | > 10 µM | > 10 µM | > 10 µM | > 10 µM | > 10 µM | > 10 µM | > 10 µM | > 10 µM | > 10 µM | > 10 µM
2 | CCOc1cc2ncc(C#N)c(Nc3ccc(F)c(Cl)c3)c2cc1NC(=O)/C=C/CN(C)C [PELITINIB] |  | > 10 µM | > 10 µM | > 10 µM |  |  | > 10 µM | > 10 µM |  | > 10 µM | > 10 µM
3 | NC(=O)c1ccc(-c2nc(-c3ccc4c(c3)OCO4)c(-c3ccccn3)[nH]2)cc1 [SB-431542] | > 10 µM | > 10 µM | > 10 µM | > 10 µM | > 10 µM | > 10 µM | > 10 µM | > 10 µM | > 10 µM | > 10 µM | > 10 µM
4 | CCN1CCN(Cc2ccc(NC(=O)Nc3ccc(Oc4cc(NC)ncn4)cc3)cc2C(F)(F)F)CC1 [AST-487] | > 10 µM |  |  |  |  |  |  |  |  |  | 
5 | Nc1nc(Nc2ccc(S(N)(=O)=O)cc2)nn1C(=O)c1c(F)cccc1F [JNJ-7706621] | > 10 µM | > 10 µM |  | 0.086 µM |  | > 10 µM |  | 1.8 µM | > 10 µM | 0.41 µM | 
6 | Oc1ccc(-c2nc(-c3ccncc3)c(-c3ccc(F)cc3)[nH]2)cc1 [SB-202190] | > 10 µM | > 10 µM | > 10 µM | > 10 µM | > 10 µM | 3.1 µM | > 10 µM | > 10 µM | > 10 µM | > 10 µM | 2.4 µM
